# Reference: patent publication US12590963B2, “Anti-cancer treatment of preselected subjects and screening methods to identify susceptible subjects” (TUDAG TU Dresden Aktiengesellschaft, priority 2018, dated 2026)
# System: U-87 cells
# Experiment: Drug screening of FDA-approved compound library, cell viability by ATP levels (ATPLite)
# Type: cell-based, human
# Conditions: FGFJI medium
# Protocol: A library of 1,600 FDA-approved compounds was screened on U-87 cells cultured in the improved conditions. Each drug was screened at both 3 micromolar and 10 micromolar concentrations. Cell viability was assessed by measuring ATP levels.
# Drugs that opposed cell viability were further investigated. These drugs were re-screened under the more common cell culture conditions (in serum-supplemented RMPI medium, where cells are more differentiated). Some drugs were identified that also opposed growth under the more differentiated conditions. We also identified some drugs that only opposed growth in the improved conditions. It was focused on the latter drugs only as being the target compounds of the present invention.
# White Corning 384 well plates (Cat #3570) were coated with 40 ul of […] polyornithine (Sigma, #P-365) at 370C overnight. The next day the plates were washed 5 times with water using a BioTek EL 406 plate washer. The plates were then coated with 40 ul of 1 mg/ml fibronectin (R&D Systems, #1030-Fn) for 2 hours at 370C and then washed 2 times with PBS. Either 15nl or 50nl of either 10 mM library compounds (MicroSource Pharmakon library) or 100% DMSO as negative control or 1 mM Staurosporine (ACROS #328532500) were dispensed with a Labcyte Echo 550 to screen the library at 3u M and 10 μM respectively. U87 cells were seeded in the plates with a WellMate drop dispenser (ThermoFischer) at a density of 3000 cells per well in 50 μl N2 medium and incubated for 20 hours at 37 °C in 5% C02. Cell viability was assayed using Perkin Elmer ATPLite (Cat 6016731) according to vendor's instructions. For the dose dependent verification assay, cells were seeded in N2 medium with or without serum to test the specificity of compound action.
# A library of 1,600 FDA-approved compounds was screened at two different concentrations (10 μM and 3 μM) on U-87 cells cultured in FGFJI (FIG. 8).
# [1] = 10 μM, second value of the cell
structure (smiles),measurement,setting,value
"Oc1c(Cl)cc(Cl)cc1Sc1cc(Cl)cc(Cl)c1O.[Na+] [BITHIONATE Na, sodium 2,4-dichloro-6-(3,5-dichloro-2-hydroxyphenyl)sulfanylphenol]","ATP assay score (3 μM, 10 μM)","3 μM, first value of the cell",−11
same,"ATP assay score (3 μM, 10 μM)",[1],−10
"Oc1c(Br)cc(Br)c2cccnc12 [BROXYQUINOLINE, 5,7-dibromoquinolin-8-ol]","ATP assay score (3 μM, 10 μM)","3 μM, first value of the cell",−11
same,"ATP assay score (3 μM, 10 μM)",[1],−8
"Oc1c(I)cc(Cl)c2cccnc12 [CLIOQUINOL, 5-chloro-7-iodoquinolin-8-ol]","ATP assay score (3 μM, 10 μM)","3 μM, first value of the cell",−11
same,"ATP assay score (3 μM, 10 μM)",[1],−7
"CC(C)(C)CC(C)(C)c1ccc(O)c(Cc2ccc(Cl)cc2Cl)c1 [CLOFOCTOL, 2-[(2,4-dichlorophenyl)methyl]-4-(2,4,4-trimethylpentan-2-yl)phenol]","ATP assay score (3 μM, 10 μM)","3 μM, first value of the cell",−11
same,"ATP assay score (3 μM, 10 μM)",[1],−5
"CC[C@@H](C(=O)[C@@H](C)[C@@H](O)[C@H](C)CCc1ccc(C)c(O)c1C(=O)[O-])[C@H]1O[C@](CC)([C@H]2CC[C@](O)(CC)[C@H](C)O2)C[C@@H]1C.[Na+] [LASALOCID Na, sodium 6-[(3R,4S,5S,7R)-7-[(2S,3S,5S)-5-ethyl-5-[(2R,5R,6S)-5-ethyl-5-hydroxy-6-methyloxan-2-yl]-3-methyloxolan-2-yl]-4-hydroxy-3,5-dimethyl-6-oxononyl]-2-hydroxy-3-methylbenzoate]","ATP assay score (3 μM, 10 μM)","3 μM, first value of the cell",−10
same,"ATP assay score (3 μM, 10 μM)",[1],−5
"Oc1cc(Cl)ccc1Oc1ccc(Cl)cc1Cl [TRICLOSAN, 5-chloro-2-(2,4-dichlorophenoxy)phenol]","ATP assay score (3 μM, 10 μM)","3 μM, first value of the cell",−7
same,"ATP assay score (3 μM, 10 μM)",[1],−5
